# Measurements: publication PMC10247784, “Physiological activation of human and mouse bitter taste receptors by bile acids” (Communications Biology, 2023)
# Several values for one entry are separate records, joined by “and”; a condition that tells them apart may be missing. Equal entries are not always repeated.
# Key:
# Assay type in all cases: cell-based
# human TAS2R46 = molecular target: T1, human TAS2R46 (Homo sapiens, UniProt P59540); assay: Calcium imaging assay (FLIPR), HEK293T-Gα16gust44 cells transfected with human TAS2R46; conditions: TAS2R46, positive control at 10 µM
# T1 construct: expressed in transfected cells; host or cells: HEK293T-Gα16gust44
# T1 sequence (P59540 1-309): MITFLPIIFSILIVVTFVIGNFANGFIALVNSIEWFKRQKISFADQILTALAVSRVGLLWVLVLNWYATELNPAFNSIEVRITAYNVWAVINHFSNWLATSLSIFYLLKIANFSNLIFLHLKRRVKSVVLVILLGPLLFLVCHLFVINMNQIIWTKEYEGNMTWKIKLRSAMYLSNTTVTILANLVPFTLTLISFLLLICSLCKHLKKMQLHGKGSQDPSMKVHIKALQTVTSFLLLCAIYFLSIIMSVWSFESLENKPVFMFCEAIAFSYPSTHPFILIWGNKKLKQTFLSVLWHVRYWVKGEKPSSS
# Method: (§1) This set of bile acids was chosen because of their commercial availability in high purities, their diversity within the class of bile acids and their previous detection and quantitation in human blood. Stock solutions were prepared in DMSO.
# (§2) As basal growth medium for the HEK293T-Gα16gust44 cell line[17],[59] served Dulbecco’s modified eagle medium (DMEM) (Thermo Fisher Scientific, Darmstadt, Germany) supplemented with 10 % fetal bovine serum (Sigma-Aldrich, Steinheim, Germany), 2 mM L-glutamine (Sigma-Aldrich, Steinheim, Germany), 100 units/ml penicillin (Sigma Aldrich, Steinheim, Germany) and 100 µg/ml streptomycin (Sigma Aldrich, Steinheim, Germany). Growth conditions were 37 °C, 5 % CO2 and saturated air-humidity[60].
# (§3) HEK293T-Gα16gust44 cells were seeded on poly-D-lysine (10 µg/ml) coated 96-well plates to reach a confluence of 40-60 % the next day. For transient transfection 150 ng of plasmid DNA containing the receptor of interest and 0.3 µl lipofectamine 2000 (Thermo Fisher Scientific, Darmstadt, Germany) per well were used and transfection took place according to the manual of lipofectamine 2000. […] The empty vector DNA (mock) was transfected as negative control[14],[41].
# (§4) Cells were loaded using the calcium-sensitive fluorescent dye Fluo-4-AM (Abcam, Cambridge, Great Britain) in the presence of 2.5 mM probenecid (Sigma-Aldrich, Steinheim, Germany) the day after transfection[13],[41]. 1 h after loading, cells were washed with C1 buffer using a BioTek Cell Washer, incubated in the dark for half an hour and washed again. For automated agonist application and measurement of fluorescence changes, a FLIPR^TETRA device (Molecular Devices, San José, United States) was used. Viability of cells was tested by application of 100 nM Somatostatin 14 (Bachem, Bubendorf, Switzerland)[42].
# (§5) Measured data were negative control corrected by subtracting the signal of the mock-transfected cells and exported to Microsoft Excel using the FLIPR software ScreenWorks 4.2. In Microsoft Excel software, standardization of maximum fluorescence intensities to the basal fluorescence and normalization to the buffer-only control was done to calculate the relative fluorescence changes (ΔF/F).
# (§6) Initial screening experiments performed in duplicate wells were confirmed by at least one replication and representative traces were selected for display. All dose-response relationships were determined by three independent experiments (biological replicates) performed in duplicates (technical replicates). Threshold concentrations, defined as lowest substance concentrations leading to statistically significant elevated fluorescence changes in receptor-transfected cells compared with empty vector-transfected cells, were determined using SigmaPlot with Student’s t-test to evaluate statistical significance (p < 0.01).
# human TAS2R14 = molecular target: T2, human TAS2R14 (Homo sapiens, UniProt Q9NYV8); assay: Calcium imaging assay (FLIPR), HEK293T-Gα16gust44 cells transfected with human TAS2R14
# T2 construct: expressed in transfected cells; host or cells: HEK293T-Gα16gust44
# T2 sequence (Q9NYV8 1-317): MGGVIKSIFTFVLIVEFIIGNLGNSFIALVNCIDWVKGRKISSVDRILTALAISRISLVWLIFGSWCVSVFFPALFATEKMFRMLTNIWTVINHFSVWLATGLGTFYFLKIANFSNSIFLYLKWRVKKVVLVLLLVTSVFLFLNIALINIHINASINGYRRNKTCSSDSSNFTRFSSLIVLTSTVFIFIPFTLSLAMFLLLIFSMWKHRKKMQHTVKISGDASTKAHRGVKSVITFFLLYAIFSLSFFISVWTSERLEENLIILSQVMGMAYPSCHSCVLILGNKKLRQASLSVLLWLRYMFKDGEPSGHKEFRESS
# Method: as §1, §2, §3, §4, §5, §6
# human TAS2R39 = molecular target: T3, human TAS2R39 (Homo sapiens, UniProt P59534); assay: Calcium imaging assay (FLIPR), HEK293T-Gα16gust44 cells transfected with human TAS2R39; conditions: TAS2R39, positive control at 3 mM
# T3 construct: expressed in transfected cells; host or cells: HEK293T-Gα16gust44
# T3 sequence (P59534 1-338): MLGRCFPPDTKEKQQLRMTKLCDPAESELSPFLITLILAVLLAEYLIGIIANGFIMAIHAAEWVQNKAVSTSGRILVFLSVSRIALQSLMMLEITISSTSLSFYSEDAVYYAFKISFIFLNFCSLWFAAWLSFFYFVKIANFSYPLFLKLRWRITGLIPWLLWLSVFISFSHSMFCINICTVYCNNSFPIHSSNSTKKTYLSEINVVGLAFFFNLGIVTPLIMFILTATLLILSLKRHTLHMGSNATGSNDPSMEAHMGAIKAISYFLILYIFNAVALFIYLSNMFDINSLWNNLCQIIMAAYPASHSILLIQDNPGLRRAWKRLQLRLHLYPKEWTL
# Method: as §1, §2, §3, §4, §5, §6
# human TAS2R1 = molecular target: T4, human TAS2R1 (Homo sapiens, UniProt Q9NYW7); assay: Calcium imaging assay (FLIPR), HEK293T-Gα16gust44 cells transfected with human TAS2R1; conditions: TAS2R1, positive control at 1 mM
# T4 construct: expressed in transfected cells; host or cells: HEK293T-Gα16gust44
# T4 sequence (Q9NYW7 1-299): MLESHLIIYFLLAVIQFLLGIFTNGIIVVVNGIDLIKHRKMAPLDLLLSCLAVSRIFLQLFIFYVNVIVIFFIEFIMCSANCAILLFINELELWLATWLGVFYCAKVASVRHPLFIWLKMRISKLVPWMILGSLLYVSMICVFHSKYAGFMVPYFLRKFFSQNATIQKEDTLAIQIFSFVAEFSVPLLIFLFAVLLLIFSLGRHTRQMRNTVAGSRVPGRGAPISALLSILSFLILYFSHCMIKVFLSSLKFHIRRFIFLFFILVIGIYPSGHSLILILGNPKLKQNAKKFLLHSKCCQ
# Method: as §1, §2, §3, §4, §5, §6
# human TAS2R4 = molecular target: T5, human TAS2R4 (Homo sapiens, UniProt Q9NYW5); assay: Calcium imaging assay (FLIPR), HEK293T-Gα16gust44 cells transfected with human TAS2R4; conditions: TAS2R4, positive control at 3 mM
# T5 construct: expressed in transfected cells; host or cells: HEK293T-Gα16gust44
# T5 sequence (Q9NYW5 1-299): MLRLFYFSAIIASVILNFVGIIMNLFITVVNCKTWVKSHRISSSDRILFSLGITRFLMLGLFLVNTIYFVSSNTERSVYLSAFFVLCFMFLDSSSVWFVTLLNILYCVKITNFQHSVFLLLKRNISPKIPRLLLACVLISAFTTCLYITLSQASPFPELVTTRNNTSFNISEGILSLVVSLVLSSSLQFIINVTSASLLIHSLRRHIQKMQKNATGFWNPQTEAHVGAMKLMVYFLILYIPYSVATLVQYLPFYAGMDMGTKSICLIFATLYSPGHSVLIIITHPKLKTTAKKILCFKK
# Method: as §1, §2, §3, §4, §5, §6
compound,measurement,setting,value
"O=C1C[C@@H]2OCC=C3CN4CC[C@]56c7ccccc7N1[C@H]5[C@H]2[C@H]3C[C@H]46 [strychnine, reference compound]",Efficacy = maximal amplitude (ΔF/F),human TAS2R46; mean,0.2373
"COc1cccc2c1cc([N+](=O)[O-])c1c(C(=O)O)cc3c(c12)OCO3 [aristolochic acid, reference compound]",Efficacy = maximal amplitude (ΔF/F),"human TAS2R14; TAS2R14, positive control at 10 µM, mean",0.4945
same,"Efficacy (maximal amplitude ΔF/F), individual data points","human TAS2R14; TAS2R14, positive control at 10 µM, single replicates",0.6939 and 0.4242 and 0.3654
same,"Efficacy (signal amplitude) versus control stimulus, TAS2R14","human TAS2R14; highest applied concentrations, control 10 µM aristolochic acid",about twice as high as the most effective bile acids
"CC[N+](CC)(CC(=O)Nc1c(C)cccc1C)Cc1ccccc1 [denatonium benzoate, reference compound]",Efficacy = maximal amplitude (ΔF/F),human TAS2R39; mean,0.08257
same,"Efficacy (maximal amplitude ΔF/F), individual data points",human TAS2R39; single replicates,0.09973 and 0.06456 and 0.07602
O=C1C[C@@H]2OCC=C3CN4CC[C@]56c7ccccc7N1[C@H]5[C@H]2[C@H]3C[C@H]46 [Strychnin],"Efficacy (maximal amplitude ΔF/F), individual data points",human TAS2R46; single replicates,0.1901 and 0.2368 and 0.2851
"C=C(C)[C@@H]1[C@H]2OC(=O)[C@@H]1[C@]1(O)C[C@H]3O[C@]34C(=O)O[C@H]2[C@]14C [picrotoxinin, reference compound]",Efficacy = maximal amplitude (ΔF/F),human TAS2R1; mean,0.1084
same,"Efficacy (maximal amplitude ΔF/F), individual data points",human TAS2R1; single replicates,0.08063 and 0.1121 and 0.1325
COc1cc2c(c(OC)c1OC)-c1ccc(OC)c(=O)cc1[C@@H](NC(C)=O)CC2 [Colchicin],Efficacy = maximal amplitude (ΔF/F),human TAS2R4; mean,0.02059
same,"Efficacy (maximal amplitude ΔF/F), individual data points",human TAS2R4; single replicates,0.02499 and 0.02039 and 0.01223
